According to patent US9283222B2 (priority 2006, dated 2016):
Read-outs that look alike come from different tables or passages of the source.

Target: Recombinant Human Poly(ADP-Ribose) Polymerase (PARP), PARP-1 (Homo sapiens (Human), UniProt P09874)
Conditions: read-out: PARP-1 (Ki)
[1] = Table 1, text calls the values EC50s

Sequence of Recombinant Human Poly(ADP-Ribose) Polymerase (PARP), PARP-1 (P09874 whole entry): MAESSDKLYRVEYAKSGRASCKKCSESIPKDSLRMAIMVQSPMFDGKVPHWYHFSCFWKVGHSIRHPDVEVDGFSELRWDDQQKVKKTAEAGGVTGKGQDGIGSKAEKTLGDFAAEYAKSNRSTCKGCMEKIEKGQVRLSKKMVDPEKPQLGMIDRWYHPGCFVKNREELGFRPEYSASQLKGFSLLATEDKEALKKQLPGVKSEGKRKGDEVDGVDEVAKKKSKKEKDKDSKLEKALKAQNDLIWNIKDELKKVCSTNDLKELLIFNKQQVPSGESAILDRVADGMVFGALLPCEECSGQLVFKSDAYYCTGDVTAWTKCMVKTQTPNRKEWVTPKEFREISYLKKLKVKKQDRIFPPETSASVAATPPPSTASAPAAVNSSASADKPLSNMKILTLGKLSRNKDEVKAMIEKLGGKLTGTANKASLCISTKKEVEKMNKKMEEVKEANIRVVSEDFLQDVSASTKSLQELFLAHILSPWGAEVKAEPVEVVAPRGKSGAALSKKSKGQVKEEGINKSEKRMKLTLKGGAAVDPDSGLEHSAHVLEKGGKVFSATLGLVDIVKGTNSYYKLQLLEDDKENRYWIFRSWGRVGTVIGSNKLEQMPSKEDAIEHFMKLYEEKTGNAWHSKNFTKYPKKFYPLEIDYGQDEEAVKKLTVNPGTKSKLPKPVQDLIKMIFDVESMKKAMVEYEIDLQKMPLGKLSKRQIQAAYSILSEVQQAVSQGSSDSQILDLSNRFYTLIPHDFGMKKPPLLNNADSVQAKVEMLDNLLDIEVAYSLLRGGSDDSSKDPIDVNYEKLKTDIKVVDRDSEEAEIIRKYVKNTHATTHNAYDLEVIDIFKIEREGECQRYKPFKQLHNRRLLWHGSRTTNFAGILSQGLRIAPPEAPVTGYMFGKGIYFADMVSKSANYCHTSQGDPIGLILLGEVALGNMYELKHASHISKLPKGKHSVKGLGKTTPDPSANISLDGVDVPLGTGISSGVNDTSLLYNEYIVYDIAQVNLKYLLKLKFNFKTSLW

SMILES	Ki [1] [nM]	Ki (Table 3, H analogs versus para-F analogs) [nM]
Cc1ccc(F)cc1C(=O)Nc1cccc(Cc2n[nH]c(=O)c3c2CCCC3)c1 [Example 179, 5-fluoro-2-methyl-N-(3-((4-oxo-3,4,5,6,7,8-hexahydrophthalazin-1-yl)methyl)phenyl)benzamide]	238	
O=C1CCN1c1cc(Cc2n[nH]c(=O)c3cccnc23)ccc1F [Example 449, 8-(4-fluoro-3-(2-oxoazetidin-1-yl)benzyl)pyrido(2,3-d)pyridazin-5(6H)-one]	103	
O=C(NC1CC1)c1cccc(Cc2n[nH]c(=O)c3c2CCCC3)n1 [Example 83, N-cyclopropyl-6-((4-oxo-3,4,5,6,7,8-hexahydrophthalazin-1-yl)methyl)pyridine-2-carboxamide]	126	
NC(=O)C1CCCN(C(=O)c2cccc(Cc3n[nH]c(=O)c4c3CCCC4)c2)C1 (stereo not drawn) [drawing 44]		19
Cc1ccc(C)c(CCNC(=O)c2cccc(Cc3n[nH]c(=O)c4c3CCCC4)c2)c1 [Example 399, N-(2-(2,5-dimethylphenyl)ethyl)-3-((4-oxo-3,4,5,6,7,8-hexahydrophthalazin-1-yl)methyl)benzamide]	65	
COc1cc(C(=O)Nc2cccc(Cc3n[nH]c(=O)c4c3CCCC4)c2)ccc1C [Example 227, 3-methoxy-4-methyl-N-(3-((4-oxo-3,4,5,6,7,8-hexahydrophthalazin-1-yl)methyl)phenyl)benzamide]	60	
O=C1CC[C@@H](C(=O)Nc2cccc(Cc3n[nH]c(=O)c4c3CCCC4)c2)N1 [Example 139, 5-oxo-N-(3-((4-oxo-3,4,5,6,7,8-hexahydrophthalazin-1-yl)methyl)phenyl)-L-prolinamide]	206	
CCCCOc1ccc(C(=O)Nc2cccc(Cc3n[nH]c(=O)c4c3CCCC4)c2)cc1 [Example 190, 4-butoxy-N-(3-((4-oxo-3,4,5,6,7,8-hexahydrophthalazin-1-yl)methyl)phenyl)benzamide]	263	
CCc1ccc(NC(=O)c2cccc(Cc3n[nH]c(=O)c4c3CCCC4)c2)cc1 [Example 331]	140	
Cc1ccc(OCC(=O)Nc2cccc(CCc3n[nH]c(=O)c4c3CCCC4)c2)cc1 [Example 323, 2-(4-methylphenoxy)-N-(3-(2-(4-oxo-3,4,5,6,7,8-hexahydrophthalazin-1-yl)ethyl)phenyl)acetamide]	237	
Cc1ccc(C(=O)Nc2cccc(Cc3n[nH]c(=O)c4c3CCCC4)c2)cc1F [Example 180, 3-fluoro-4-methyl-N-(3-((4-oxo-3,4,5,6,7,8-hexahydrophthalazin-1-yl)methyl)phenyl)benzamide]	159	
O=C(Cc1cccnc1)Nc1cccc(Cc2n[nH]c(=O)c3c2CCCC3)c1 [Example 216, N-(3-((4-oxo-3,4,5,6,7,8-hexahydrophthalazin-1-yl)methyl)phenyl)-2-pyridin-3-ylacetamide]	82	
CCc1ccccc1NC(=O)c1cccc(Cc2n[nH]c(=O)c3c2CCCC3)c1 [Example 329, N-(2-ethylphenyl)-3-((4-oxo-3,4,5,6,7,8-hexahydrophthalazin-1-yl)methyl)benzamide]	789	
O=C(NC1CCCCC1)c1cc(Cc2n[nH]c(=O)c3c2CCCC3)ccn1 [Example 77, N-cyclohexyl-4-((4-oxo-3,4,5,6,7,8-hexahydrophthalazin-1-yl)methyl)pyridine-2-carboxamide]	195	
CC(C)(C)NC(=O)Nc1cc(Cc2n[nH]c(=O)c3c2CCCC3)ccc1F [Example 542, N-(tert-butyl)-N′-{2-fluoro-5-[(4-oxo-3,4,5,6,7,8-hexahydrophthalazin-1-yl)methyl]phenyl}urea]	548	
O=c1[nH]nc(Cc2cccc(NS(=O)(=O)c3cccnc3)c2)c2c1CCCC2 [Example 117, N-(3-((4-oxo-3,4,5,6,7,8-hexahydrophthalazin-1-yl)methyl)phenyl)pyridine-3-sulfonamide]	477	
CCNC(=O)c1cc(Cc2n[nH]c(=O)c3c2CCCC3)ccn1 [Example 75, N-ethyl-4-((4-oxo-3,4,5,6,7,8-hexahydrophthalazin-1-yl)methyl)pyridine-2-carboxamide]	56	
CC1CC1C(=O)Nc1cccc(Cc2n[nH]c(=O)c3c2CCCC3)c1 (stereo not drawn) [Example 137, 2-methyl-N-(3-((4-oxo-3,4,5,6,7,8-hexahydrophthalazin-1-yl)methyl)phenyl)cyclopropanecarboxamide]	69	
O=C(Nc1ccc(N2CCCCC2)cc1)c1cccc(Cc2n[nH]c(=O)c3c2CCCC3)c1 [Example 362, 3-((4-oxo-3,4,5,6,7,8-hexahydrophthalazin-1-yl)methyl)-N-(4-piperidin-1-ylphenyl)benzamide]	185	
COc1ccc(CCC(=O)Nc2cccc(Cc3n[nH]c(=O)c4c3CCCC4)c2)cc1 [Example 162, 3-(4-methoxyphenyl)-N-(3-((4-oxo-3,4,5,6,7,8-hexahydrophthalazin-1-yl)methyl)phenyl)propanamide]	51	
Cc1ccc(NC(=O)c2cccc(Cc3n[nH]c(=O)c4c3CCCC4)c2)cc1O [Example 350, N-(3-hydroxy-4-methylphenyl)-3-((4-oxo-3,4,5,6,7,8-hexahydrophthalazin-1-yl)methyl)benzamide]	143	

The remaining lines, values ahead:

Ki [1] [nM]	Ki (Table 3, H analogs versus para-F analogs) [nM]	SMILES
4		O=CN1CCN(C(=O)c2cccc(Cc3n[nH]c(=O)c4c3CCCC4)c2)CC1 [Example 437, 4-(3-((4-oxo-3,4,5,6,7,8-hexahydrophthalazin-1-yl)methyl)benzoyl)piperazine-1-carbaldehyde]
2.7		CCN(CCNC(=O)N1CCCC1)C(=O)c1cc(Cc2n[nH]c(=O)c3c2CCCC3)ccc1F [Example 743, N-[2-(ethyl{2-fluoro-5-[(4-oxo-3,4,5,6,7,8-hexahydrophthalazin-1-yl)methyl]benzoyl}amino)ethyl]pyrrolidine-1-carboxamide]
2.1		O=C(c1ccc(F)cc1)C1CCN(C(=O)c2cc(Cc3n[nH]c(=O)c4c3NCCC4)ccc2F)CC1 [Example 691, 8-(4-fluoro-3-{[4-(4-fluorobenzoyl)piperidin-1-yl]carbonyl}benzyl)-2,3,4,6-tetrahydropyrido[2,3-d]pyridazin-5(1H)-one]
1.1		COc1ccc(C(=O)N2CCN(C(=O)c3cc(Cc4n[nH]c(=O)c5c4NCCC5)ccc3F)CC2)cc1 [Example 601, 8-(4-fluoro-3-{[4-(4-methoxybenzoyl)piperazin-1-yl]carbonyl}benzyl)-2,3,4,6-tetrahydropyrido[2,3-d]pyridazin-5(1H)-one]
2.1		O=C(c1cc[nH]n1)N1CCCN(C(=O)c2cc(Cc3n[nH]c(=O)c4c3NCCC4)ccc2F)CC1 [Example 702, 8-(4-fluoro-3-{[4-(1H-pyrazol-3-ylcarbonyl)-1,4-diazepan-1-yl]carbonyl}benzyl)-2,3,4,6-tetrahydropyrido[2,3-d]pyridazin-5(1H)-one]
33		COc1ccc(NC(=O)c2cccc(Cc3n[nH]c(=O)c4c3CCCC4)c2)cc1F [Example 346, N-(3-fluoro-4-methoxyphenyl)-3-((4-oxo-3,4,5,6,7,8-hexahydrophthalazin-1-yl)methyl)benzamide]
1.8		CC1(C(=O)N2CCCN(C(=O)c3cc(Cc4n[nH]c(=O)c5c4CCCC5)ccc3F)CC2)CC1 [Example 635, 4-[4-fluoro-3-({4-[(1-methylcyclopropyl)carbonyl]-1,4-diazepan-1-yl}carbonyl)benzyl]-5,6,7,8-tetrahydrophthalazin-1(2H)-one]
42		COc1cc(CCNC(=O)c2cccc(Cc3n[nH]c(=O)c4c3CCCC4)c2)cc(OC)c1 [Example 406, N-(2-(3,5-dimethoxyphenyl)ethyl)-3-((4-oxo-3,4,5,6,7,8-hexahydrophthalazin-1-yl)methyl)benzamide]
2		O=C1C2CCCCC2C(=O)N1c1cc(Cc2n[nH]c(=O)c3c2CCCC3)ccc1F (stereo not drawn) [Example 298, 2-(2-fluoro-5-((4-oxo-3,4,5,6,7,8-hexahydrophthalazin-1-yl)methyl)phenyl)hexahydro-1H-isoindole-1,3(2H)-dione]
3		CCN(CCNC(=O)OC(C)(C)C)C(=O)c1cc(Cc2n[nH]c(=O)c3c2CCCC3)ccc1F [Example 711, tert-butyl 2-(ethyl{2-fluoro-5-[(4-oxo-3,4,5,6,7,8-hexahydrophthalazin-1-yl)methyl]benzoyl}amino)ethylcarbamate]
2.3		N[C@H]1CC(=O)N(c2cc(Cc3n[nH]c(=O)c4c3CCCC4)ccc2F)C1=O [Example 583, (3S)-3-amino-1-{2-fluoro-5-[(4-oxo-3,4,5,6,7,8-hexahydrophthalazin-1-yl)methyl]phenyl}pyrrolidine-2,5-dione]
22		O=C(NCCc1cccc(C(F)(F)F)c1)c1cccc(Cc2n[nH]c(=O)c3c2CCCC3)c1 [Example 394, 3-((4-oxo-3,4,5,6,7,8-hexahydrophthalazin-1-yl)methyl)-N-(2-(3-(trifluoromethyl)phenyl)ethyl)benzamide]
1.2		CC(C)n1nnc2cc(C(=O)N3CCN(C(=O)c4cc(Cc5n[nH]c(=O)c6c5NCCC6)ccc4F)CC3)ccc21 [Example 643]
22		CCOc1cc(CCNC(=O)c2cccc(Cc3n[nH]c(=O)c4c3CCCC4)c2)ccc1OC [Example 400, N-(2-(3-ethoxy-4-methoxyphenyl)ethyl)-3-((4-oxo-3,4,5,6,7,8-hexahydrophthalazin-1-yl)methyl)benzamide]
48		CCOc1ccc(CCNC(=O)c2cccc(Cc3n[nH]c(=O)c4c3CCCC4)c2)cc1OC [Example 401, N-(2-(4-ethoxy-3-methoxyphenyl)ethyl)-3-((4-oxo-3,4,5,6,7,8-hexahydrophthalazin-1-yl)methyl)benzamide]
28		O=C(Nc1cccc(Cc2n[nH]c(=O)c3c2CCCC3)c1)[C@H](O)CCc1ccccc1 [Example 164, (2R)-2-hydroxy-N-(3-((4-oxo-3,4,5,6,7,8-hexahydrophthalazin-1-yl)methyl)phenyl)-4-phenylbutanamide]
50		CNC(=O)c1cc(Cc2n[nH]c(=O)c3c2CCCC3)ccn1 [Example 67, N-methyl-4-((4-oxo-3,4,5,6,7,8-hexahydrophthalazin-1-yl)methyl)pyridine-2-carboxamide]
1.3		O=C(c1cc(Cc2n[nH]c(=O)c3c2CCCC3)ccc1F)N1CCC(O)CC1 [Example 503, 4-{4-fluoro-3-[(4-hydroxypiperidin-1-yl)carbonyl]benzyl}-5,6,7,8-tetrahydrophthalazin-1(2H)-one]
